For six molecules, Ki results are on record in BindingDB's records for doi:10.1016/j.ejmech.2012.01.025 (National Institute On Drug Abuse and The National Institute …, 2012).

For the assay, the target named is Delta-type opioid receptor (Homo sapiens, UniProt P41143). The assay can be described thus: Displacement of [3H]-DADLE from human delta opioid receptor expressed in CHO cells membrane after 2 hrs by liquid scintillation counting. For orientation: In a radioligand displacement assay an active substance lowers the binding of a labelled ligand.
Chain of Delta-type opioid receptor (P41143 whole entry): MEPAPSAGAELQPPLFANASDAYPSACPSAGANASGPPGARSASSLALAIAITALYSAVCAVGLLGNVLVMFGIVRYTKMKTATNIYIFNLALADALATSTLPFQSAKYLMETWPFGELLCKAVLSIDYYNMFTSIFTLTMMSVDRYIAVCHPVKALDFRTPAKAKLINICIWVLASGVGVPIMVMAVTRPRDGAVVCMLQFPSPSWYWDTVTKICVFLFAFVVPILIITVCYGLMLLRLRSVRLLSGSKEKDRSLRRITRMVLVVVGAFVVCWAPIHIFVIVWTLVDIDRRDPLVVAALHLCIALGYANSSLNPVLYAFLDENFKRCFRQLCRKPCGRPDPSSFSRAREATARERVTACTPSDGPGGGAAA

With `CN1C[C@@H](O)[C@]2(c3cccc(O)c3)CCC[C@H]1C2`, the Ki (commonly a dissociation constant, usually derived from enzyme kinetics or from competition with a known ligand) is above 15 µM.
`CN1CC2(OCCO2)[C@]2(c3cccc(O)c3)CCC[C@H]1C2` came in with a Ki above 7.8 µM.
With `CN1C2CCC[C@@](c3cccc(O)c3)(C2)[C@@H]1CO` the figure was above 10 µM.
The molecule `Oc1cccc([C@@]23CCC[C@@H](C2)N(CCc2ccccc2)C[C@@H]3O)c1` showed a Ki of 5.8 µM.
With `Oc1cccc([C@@]23CCC[C@@H](C2)N(CCc2ccccc2)C[C@H]3O)c1` the figure was 1 µM; with `CN1C[C@H](O)[C@]2(c3cccc(O)c3)CCC[C@H]1C2`, 7.2 µM.
